# How the values were obtained:
# [1] = Stability of Budesonide solution formulations: recovery of budesonide after storage; type: physicochemical
# Procedure: Cans of Budesonide in solution according to the following formulation were manufactured: […]
# Budesonide 400 mg (200 mcg/shot)
# Anodized and lacquered cans and non ethanol extracted valves were utilized. The cans were put on stability at 50° C. (inverted)
# Cans with the same formulation were prepared and in this case ethanol extracted valves were utilized.
# [2] = Stability of Budesonide solution formulations: determination of degradation products (related substances); type: physicochemical
# Procedure: Two cans of anodized aluminum prepared as per example 2 were submitted to the determination of degradation products of the active ingredient.
# It was noticed in this way that after a lag time of 6 months at 40° C. the degradation rate increases with the same pattern seen in the first example. […] An explanation of the process is that peroxides may leach into the solution after a while, thus starting a radicalic degradation of Budesonide.
structure (smiles),measurement,setting,value
CCCC1O[C@@H]2C[C@H]3[C@@H]4CCC5=CC(=O)C=C[C@]5(C)[C@H]4[C@@H](O)C[C@]3(C)[C@]2(C(=O)CO)O1 (stereo partly shown) [Budesonide],Degradation observed,"[1]; anodized and lacquered cans, non ethanol extracted valves, 50° C. inverted",high degree of degradation
same,Stability of the solution formulation,"[1]; ethanol extracted valves, compared with non extracted valves (Example 1)",much higher stability
same,Lag time after which the degradation rate increases,"[2]; 40° C., anodized aluminum cut edge cans, ethanol extracted valves, inverted, does not occur if stored upright",6 months
same,Stability of the solution,[2]; finishing of the cans changed from cut edge to rolled neck,greatly increased

# From US20040126325A1, “Medicinal aerosol solution formulation products with improved chemical stability” (priority 2002, published 2004)
